In brackets after ≈: the same amount, converted by molar mass. Entries after “also recorded” stand apart in the source; their conditions may differ. Where two headings read alike, the source gives them in different places. One block for each molecule: values may come before it.
Experiments:
[1] = Water solubility in aqueous buffer; format: physicochemical
[2] = tested on: Cord-Blood Derived Primary Human Mast Cells (CHMC); test: FcεRI-dependent activation of CHMC, tryptase released upon degranulation; format: cell-based; conditions: Mast cell, activity of tryptase released upon degranulation
[3] = tested on: CHMCs; test: Ionomycin-induced degranulation of CHMCs; format: cell-based, Human
[4] = tested on: LTC4; test: FcεRI-dependent production and release of LTC4; format: cell-based; conditions: Homo sapiens
[5] = tested on: cytokines; test: FcεRI-dependent production and release of cytokines; format: cell-based; conditions: Homo sapiens; range over cytokines; read-out: EC50, FcεRI-dependent production and release of all cytokines tested
[6] = tested on: IC-mediated vascular edema (Arthus reaction); test: Reverse Passive Arthus (RPA) reaction; format: in vivo, rat
Source text: IC-mediated acute inflammatory tissue injury is implicated in a variety of human autoimmune diseases, including vasculitis, serum sickness, systemic lupus erythematosus, RA, and glomerulonephritis. The classical experimental model for IC-mediated tissue injury is the Reverse Passive Arthus (RPA) reaction. Intravenous injection of antigen (ovalbumin, OVA) following intradermal injection of antibodies specific to OVA (rabbit anti-OVA IgG) results in perivascular deposition of IC and a rapid inflammatory response characterized by edema, neutrophil infiltration, and hemorrhage at the injection sites (Szalai, et al., 2000, J. Immunol. 164(1):463-468).

[7] = tested on: collagen antibody-induced arthritis; test: Collagen antibody-induced arthritis (CAIA); format: in vivo, Balb/c mice
Source text: This passive model differs from the traditional rodent collagen-induced arthritis (CIA) in that disease symptoms appear quickly (developing within 24-48 hrs after an IV-injection of antibodies), arthritis is inducible in both CIA-susceptible and CIA-resistant mouse strains, and it allows evaluation of inflammation that is independent of antibody production. CAIA was induced in Balb/c mice by intravenous injection of Arthrogen-CIA® Monoclonal Antibody Blend (Chemicon International, Inc., Temecula, Calif.) via the tail vein, followed 2 days later by an intraperitoneal injection of LPS. […] The severity of the arthritis in hind-paws was scored daily (scale of 0-4 per paw, sum of scores for both hind paws).

[8] = tested on: collagen-induced arthritis; test: Collagen-induced arthritis (CIA); format: in vivo, Syngeneic LOU rats
Source text: One of the experimental models for IC-mediated tissue injury is the CIA in rodents (Kleinau et al., 2000, J. Exp. Med. 191:1611-1616). Injection of type II collagen (CII) into rodents produces an immune reaction that characteristically involves inflammatory destruction of cartilage and bone of the distal joints with concomitant swelling of surrounding tissues. CIA in rats is commonly used to evaluate compounds that might be of potential use as drugs for treatment of rheumatoid arthritis and other chronic inflammatory conditions and is induced in susceptible strains of either mice or rats by injection of CII in incomplete Freund's adjuvant (IFA). Administration of this emulsion gives rise to polyarthritis, characterized by synovial hyperplasia, infiltration of mononuclear cells, pannus formation, and destruction of cartilage and bone. […] Syngeneic LOU rats were immunized on Day 0 with native chicken CII/IFA. Oral treatment began at the onset of arthritis symptoms (Day 10). […] Hind limbs were scored daily for clinical arthritis severity using a standardized method based on the degree of joint inflammation. High resolution digital radiographs of hind limbs were obtained at the conclusion of the study (Day 28). These limbs were also analyzed for histopathologic changes. IgG antibodies to native CII were measured in quadruplicate by ELISA. […] Brahn. 2004). Blinded composite histopathologic studies confirmed the regression of pannus and erosions: […] Antibodies to native CII were not decreased in Compound 1-treated rats.

[9] = Safety pharmacology: cardiovascular study; format: in vivo; conditions: 50 mg/kg
Method: (§1) GLP toxicology studies included negative mutagenicity and clastogenicity studies (Ames, chromosomal aberration, and mouse micronucleus). […] The No Observed Adverse Effect Level (NOAEL) is 10-30 mg/kg/day for rats and 100 mg/kg/day for monkeys.

[10] = Safety pharmacology: CNS (Irwin) study; format: in vivo; conditions: 50 mg/kg
Method: as §1

[11] = GLP mutagenicity and clastogenicity studies (Ames, chromosomal aberration, mouse micronucleus)
Method: as §1

[12] = monkey, in vivo
Method: as §1

[13] = rat, in vivo
[14] = Stability under acidic and neutral conditions at 37° C.; format: physicochemical; conditions: FIG. 8
[15] = Conversion of prodrug to drug in microsome preparations; format: in vitro ADME, rat
Source text: (§2) Although phosphate-containing prodrugs suitable for oral administration are of interest, skilled artisans will appreciate that prodrugs including phosphate-containing progroups R^p can be administered via other routes of administration, as phosphatases are distributed throughout the body. […] Thus, the only requirement is that the particular phosphate-containing progroup R^P selected should be removable under the conditions of intended use.

[16] = Stability / hydrolysis in rat plasma; format: in vitro ADME; conditions: FIG. 10
Source text: as §2
The presence of Phosphatase activity in rat plasma was confirmed using p-nitrophenyl phosphate—a known substrate for phosphatase.

[17] = Pharmacokinetics after IV and oral dosing in rats; format: in vivo, Sprague-Dawley rats
Method: Prodrug Compound 4 was tested for oral bioavailability. For the study, the prodrug was dissolved in various vehicles (e.g. PEG 400 solution and CMC suspension) for intravenous and oral dosing in the rats. […] Following administration of the prodrug and/or drug, plasma samples were obtained and extracted. The plasma concentrations of the prodrug and/or drug were determined by high performance liquid chromatography/tandem mass spectrometry (LC/MS/MS) methods. Pharmacokinetic analyses were performed based on the plasma concentration data. The pharmacokinetic parameters of interest include Clearance (CL), Volume of distribution at steady-state (Vss), terminal half-life (t1/2), and oral bioavailability (% F).
Referring to FIG. 4, PK profiles are shown for IV and PO administration in Spraque-Dawley rats. For IV administration, Compound 4 was dissolved in PEG-400 and administered at a dose of 1 mg/kg.
FIG. 5 summarizes the PK parameters for the study described in FIG. 4.
FIG. 11 illustrates the absorption of prodrug Compound 4 from different vehicles.

[18] = water solubility, aqueous buffer under physiological conditions, read-out: Solubility

solubility ([1]; aqueous buffer, phosphate buffer at pH=7.5, data not shown, read-out: measured solubility): < 1 µg/mL | solubility [1, 18]: 1 to 2 µg/mL (≈ 2.13 to 4.25 µM) | EC50 [2]: ~43 nM | EC50 [4]: 39 nM | EC50 [5]: 158 to 462 nM | effect on hematology and bone marrow cellularity [12]: reversible effect | CD45RA+ cells (immunophenotyping) [13]: significant increase | Histopathology [13]: mild reductions in marrow cellularity | effect on hematology, liver transaminase (mild), spleen and thymus size, bone marrow cellularity [13]: reversible effect | humoral immunity, anti-KLH antibody assessment [13]: no evidence for untoward effects | percentage of CD3+ cells (immunophenotyping) [13]: significant decrease
Compound: COc1cc(Nc2ncc(F)c(Nc3ccc4c(n3)NC(=O)C(C)(C)O4)n2)cc(OC)c1OC [Compound 1, N4-(2,2-dimethyl-3-oxo-4H-5-pyrido[1,4]oxazin-6-yl)-5-fluoro-N2-(3,4,5-trimethoxyphenyl)-2,4-pyrimidinediamine]
inhibition of ionomycin-induced degranulation [3]: does not inhibit | inhibition at 10 mg/kg ([6]; Rattus norvegicus, 10 mg/kg oral, compared with vehicle control, read-out: inhibition of extravascular leakage of Evans blue dye (OD610) from tissue biopsies): 80% | cutaneous RPA reaction and inflammatory edema ([6]; single oral treatment one hour prior to antigen/antibody administration): reduced the cutaneous RPA reaction and inflammatory edema in a dose-dependent manner | arthritis severity, disease incidence, time of onset ([7]; lower dose levels, differences not significant (p>0.05)): trend toward reduced arthritis severity, disease incidence, and time of onset | clinical arthritis vs vehicle ([7]; oral, b.i.d., p<0.05): significantly reduced clinical arthritis | arthritis severity ([8]; 30 mg/kg q.d. p.o., evident within 7 days after initiation of therapy, p<0.05): significant reduction | Mean modified Mankin scores (histopathology, pannus and erosions) ([8]; 30 mg/kg, p<0.001 vs vehicle): 3.7±0.9 | clinical score ([8]; Day 28, 30 mg/kg q.d. p.o., p<0.001 vs vehicle): 2.54±0.98 | joint damage, blinded radiographs ([8]; Day 28, p<0.02 vs vehicle): 1.63±0.67 | cardiovascular effect [9]: slight reduction in heart rate and increase in RR interval | behavioral effect [10]: slight effect on a few behavioral parameters | mutagenicity and clastogenicity [11]: negative

Solubility of prodrug relative to active drug Compound 1 ([1]; same conditions, Compound 4 vs Compound 1): approximately 2000 times | solubility [1, 18]: > 5000 µg/mL | stability of prodrug [14]: stable | conversion of prodrug Compound 4 to drug Compound 1 ([15]; microsomal preparations obtained from Xenotech, FIG. 9): failed to convert | plasma levels of drug metabolite Compound 1 after dosing prodrug ([17]; Compound 4 given orally in PEG-400): high levels | AUC/dose of drug Compound 1 exposure (absorption), prodrug vs drug ([17]; oral, Compound 1 2.5 mg/kg in PEG-400 vs Compound 4 4 mg/kg in PEG-400, FIG. 6): nearly identical
Compound: COc1cc(Nc2ncc(F)c(Nc3ccc4c(n3)N(COP(=O)(O)O)C(=O)C(C)(C)O4)n2)cc(OC)c1OC [Compound 4, N4-(2,2-dimethyl-4-[(dihydrogenphosphonoxy)methyl]-3-oxo-5-pyrido[1,4]oxazin-6-yl)-5-fluoro-N2-(3,4,5-trimethoxyphenyl)-2,4-pyrimidinediamine]
conversion of prodrug Compound 4 to drug Compound 1 ([15]; rat intestinal and hepatic microsomes from a different source (data not shown)): metabolize to the active drug Compound 1; also recorded: conversion of Compound 4 to Compound 1 was observed | stability in rat plasma, hydrolysis to drug Compound 1 [16]: metabolize to the active drug Compound 1; also recorded: unstable | disappearance / clearance of prodrug from plasma ([17]; IV, 1 mg/kg in PEG-400, 1 mg/kg): Rapid disappearance; also recorded: rapidly cleared | systemic presence of prodrug after oral dosing ([17]; given orally in PEG-400): no prodrug Compound 4 was present systemically | absorption from different vehicles ([17]; oral, rats, PEG-400 and carboxymethylcellulose solutions, powder in hard gelatin capsules, FIG. 11): absorbed equally well; also recorded: not dependent on formulation

From patent US10577381B2, “Prodrugs of 2,4-pyrimidinediamine compounds and their uses” (Rigel Pharmaceuticals, Inc., priority 2005, dated 2020)
